Tests used:
[1] = tested on: L-SELECTIN (L Selectin-IgG chimera); assay: ELISA: inhibition of L-selectin binding to 2,3 sLex glycolipid
Description: (§1) E-SELECTIN transfected COS cells produced by the above method may be used to assay for glucuronyl glycolipid ligands. Similarly, COS cells may be transfected with cDNAs that encode L-SELECTIN and/or P-SELECTIN. The production and characterization of L-SELECTIN IgG chimera constructs have been previously described by Watson S. R. et al., (1990) J. Cell Biol. 110:2221-2229. This chimera contains two complement binding domains, consistent with its natural expression. See Watson S. R. et al., (1991) J. Cell Biol. 115:235-243. P-SELECTIN chimera was constructed in a similar manner as described by Walz, G., et al (1990) Science 250, 1132-1135, and Aruffo, A. et al. (1991) Cell, 67, 35-44, respectively. The chimeras may be expressed in a suitable host cell, for example, 293 cells and purified. Protein A affinity chromatography is the preferred method of purification. E-SELECTIN and P-SELECTIN may be constructed with truncated complement binding domains to standardize the size of the chimeras and to facilitate their secretion. A variation of the above assay is to genetically engineer cells to express high levels of L-SELECTIN, E-SELECTIN, or P-SELECTIN on their surface, and to use the cells in lieu of purified selectin. Radiolabeled COS cells have been used in this type of assay, and can be transfected with cDNA that encodes for L-SELECTIN, E-SELECTIN or P-SELECTIN. […] The number of adherent cells reflects the capacity of the ligand to bind to the selectin.
Compounds 13a, 13b, 26 and 31 were tested for their capacity to bind to E, L and P selectin. The ELISA assay used consists of evaporating 2,3 sLex glycolipid, at 25 picomoles per well, onto microtiter wells, and then washing the excess off with water. The wells are blocked with 5% BSA at room temperature for an hour and then washed with PBS containing 1 mM Ca. While the plate is being blocked, biotin labelled goat F(ab')2 IgG (Fc specific) and streptavidinalkaline phosphatase diluted 1:1500 in 1% BSA-PBS (1 mM Ca) are combined with either the E, L or P Selectin-IgG chimera (L91-10) at 200 ng/mL and incubated at 37° C. for 15 minutes to allow a complex to form. This provides a soluble "multivalent" receptor. […] The solutions were then placed in the microtiter wells that had been washed after being blocked, and the plates incubated at 37° C. for 45 minutes to allow the soluble receptor to bind to the known natural ligand, 2,3 sLex glycolipid. The positive control was the signal produced by soluble "multivalent" receptor reacted with only the ligand evaporated to the microtiter well. This was considered "100% binding." The signal produced by receptor previously reacted with inhibitor is divided by the signal produced by the positive control, multiplied by 100, to calculate % receptor bound in the presence of the inhibitor. The reciprocal of this is % inhibition.

[2] = tested on: E-SELECTIN (E Selectin-IgG chimera); assay: ELISA: inhibition of E-selectin binding to 2,3 sLex glycolipid
Description: as §1
(§2) Compounds 13a, 13b, 26 and 31 were tested for their capacity to bind to E, L and P selectin. The ELISA assay used consists of evaporating 2,3 sLex glycolipid, at 25 picomoles per well, onto microtiter wells, and then washing the excess off with water. The wells are blocked with 5% BSA at room temperature for an hour and then washed with PBS containing 1 mM Ca. While the plate is being blocked, biotin labelled goat F(ab')2 IgG (Fc specific) and streptavidinalkaline phosphatase diluted 1:1500 in 1% BSA-PBS (1 mM Ca) are combined with either the E, L or P Selectin-IgG chimera (L91-10) at 200 ng/mL and incubated at 37° C. for 15 minutes to allow a complex to form. This provides a soluble "multivalent" receptor. Compounds 13a and 13b were added at final concentrations ranging from 1.5 to 5.0 mM to the soluble receptor and allowed to react at 37° C. for 45 minutes. The solutions were then placed in the microtiter wells that had been washed after being blocked, and the plates incubated at 37° C. for 45 minutes to allow the soluble receptor to bind to the known natural ligand, 2,3 sLex glycolipid. The positive control was the signal produced by soluble "multivalent" receptor reacted with only the ligand evaporated to the microtiter well. This was considered "100% binding." The signal produced by receptor previously reacted with inhibitor is divided by the signal produced by the positive control, multiplied by 100, to calculate % receptor bound in the presence of the inhibitor. The reciprocal of this is % inhibition.

[3] = tested on: adhesion of human neutrophils in the rabbit isolated heart; assay: Reperfusion Injury Assay: complement-induced neutrophil adhesion in isolated perfused heart; parameters: species or system human neutrophils; New Zealand White rabbit heart
Description: Experiments were done to determine the effectiveness of compound 13b in decreasing adhesion of human neutrophils in the rabbit isolated […]. Addition of the human plasma to the rabbit isolated […] results in activation of the complement components found within the plasma, which in turn promotes an increase in the neutrophil accumulation. This model is used to determine the effect of lactose derivatives on inhibiting complement-induced neutrophil adhesion.
Hearts from New Zealand White rabbits were excised, mounted on a modified Langendorff apparatus and perfused with Krebs-Heinseleit buffer. Cardiac functional parameters were monitored upon a Grass Model 79D polygraph machine. 4% normal human plasma (NHP) was added to the recirculating buffer. Ten minutes after the addition of the plasma, 13b (0.1 mg/ml) was added to the perfusate. After 15 minutes of perfusion with the plasma, 51-chromium labelled human neutrophils (1×10^5 /ml) were added to the perfusate and allowed to recirculate for an additional 15 minutes. At the end of this time the hearts were washed with fresh buffer to remove non-specifically bound neutrophils, dried and counted in a well type gamma-counter. A concentration response curve was generated using concentrations of 0.001, 0.01 and 0.1 mg/ml. Six hearts were used for each of these concentrations.
Table 4 lists the results, expressed as the percent inhibition of neutrophil accumulation.

[4] = tested on: neutrophil-dependent injury to the lung endothelium and alveolar epithelium; assay: Acute Lung Injury Assay (acid aspiration injury); assay type: in vivo, New Zealand White rabbits; settings: 10 mg/kg/hr IV; for Alveolar-arterial blood oxygen gradient: as compared to control animals
Description: Experiments were done to determine the effectiveness of compounds 13b or 31 in their ability to reduce neutrophil-dependent injury to the lung endothelium and alveolar epithelium following acid aspiration injury.
Female New Zealand White rabbits (1 each/group, approx. 2 KG each) were anesthetized with halothane and ventilated with positive pressure ventilation supplemented with oxygen. Vascular catheters were placed in the carotid artery, into the internal jugular vein, and a tracheostomy was made for positive pressure ventilation. A low pH solution (HCl, pH 1.5) was installed in Ringer's lactate (osmolality=approximately 100) at a dose of 3 ml/kg into the trachea to stimulate a gastric aspiration induced lung injury. Compound 13b or 31 were injected (10 mg/kg/hr IV) 5 minutes prior to intratracheal instillation of the low pH solutions continued by hourly injections until the end of the experiment. Appropriate controls were used. An intravascular as well as an intra-alveolar radiolabelled protein tracer was injected to quantify lung endothelial and alveolar epithelial protein permeability. Arterial blood gases, systemic blood pressure and airways were monitored. At the end of 6 hours the lungs were removed and alveolar fluid was sampled from both lungs in order to measure the concentration of native protein as well as radiolabelled proteins in the airspaces to calculate lung vascular and lung epithelial permeability. Also, one lung was lavaged in order to count the neutrophils that are present in the airspaces of the lungs. Extravascular lung water measurements was done on the lung which was not lavaged. Histological samples were taken from selected portions of the lung.

[5] = tested on: P-SELECTIN (P Selectin-IgG chimera); assay: ELISA: inhibition of P-selectin binding to 2,3 sLex glycolipid
Description: as §1, §2

L-Selectin = settings: cited from earlier work
mammalian hepatocytes = settings: Lee et al. 1984, read-out: IC50 for inhibition of labeled ASOR binding; cited from earlier work
P-SELECTIN = settings: cited from earlier work

## C[C@@H]1O[C@@H](O[C@@H]2[C@@H](O)[C@H](OCC[Si](C)(C)C)O[C@H](CO)[C@H]2O[C@@H]2O[C@H](CO)[C@H](O)[C@H](OS(=O)(=O)O)[C@H]2O)[C@@H](O)[C@H](O)[C@@H]1O [Compound 13a, 2-(Trimethylsilyl) ethyl O-α-L-fucopyranosyl-(1→3)-O-[sodium-β-D-galactopyranosyl3-sulfate-(1→4)]-β-D-glucopyranoside]
[1]
  inhibition of binding of L selectin to 2,3 sLex glycolipid (in words): inhibit binding of L selectin
[1]; 1.25 mM
  % INHIBITION of L-selectin binding to sLeX: 13%
[1]; 2.5 mM
  % INHIBITION of L-selectin binding to sLeX: 27%
[1]; 5.0 mM
  % INHIBITION of L-selectin binding to sLeX: 47%
[2]
  inhibition of binding of E selectin to 2,3 sLex glycolipid (in words): inhibit binding of E selectin to 2,3 sLex glycolipid
[2]; 1.25 mM
  % INHIBITION of E-selectin binding to sLeX: 30%
[2]; 2.5 mM
  % INHIBITION of E-selectin binding to sLeX: 34%
[2]; 5.0 mM
  % INHIBITION of E-selectin binding to sLeX: 48%

## C[C@@H]1O[C@@H](O[C@H]2[C@H](O[C@@H]3O[C@H](CO)[C@H](O)[C@H](OS(=O)(=O)O)[C@H]3O)[C@@H](CO)OC(O)[C@@H]2O)[C@@H](O)[C@H](O)[C@@H]1O (stereo partly drawn) [Compound 13b, O-α-L-fucopyranoayl-(1→3)-O-[sodium β-D-galactopyranosyl 3-sulfate-(1→4)]-D-glucopyranose]
[1]
  inhibition of binding of L selectin to 2,3 sLex glycolipid (in words): inhibit binding of L selectin
[1]; 1.25 mM
  % INHIBITION of L-selectin binding to sLeX: 90%
[1]; 2.0 mM
  % INHIBITION of L-selectin binding to sLeX: 100%
[1]; 2.5 mM
  % INHIBITION of L-selectin binding to sLeX: 100%
[3]; 0.1 mg/ml
  degree of inhibition of neutrophil adhesion (in words): most significant degree of inhibition
[3]; 0.001, 0.01 and 0.1 mg/ml
  inhibition of neutrophil adhesion (in words): inhibited neutrophil adhesion in a concentration-dependent manner
[3]; Neutrophil, Table 4, 13b (0.1 mg/ml) added to the perfusate, read-out: % Neutrophil Inhibition (percent inhibition of neutrophil accumulation)
  inhibition at 100 µg/mL: 35%
[2]
  inhibition of binding of E selectin to 2,3 sLex glycolipid (in words): inhibit binding of E selectin to 2,3 sLex glycolipid
[2]; 1.25 mM
  % INHIBITION of E-selectin binding to sLeX: 48.5%
[2]; 2.5 mM
  % INHIBITION of E-selectin binding to sLeX: 45.4%
[2]; 5.0 mM
  % INHIBITION of E-selectin binding to sLeX: 82.5%
[4]
  Alveolar-arterial blood oxygen gradient: decrease

## CCCCCCCCO[C@@H]1O[C@H](CO)[C@@H](O[C@@H]2O[C@H](CO)[C@H](O)[C@H](OS(=O)(=O)O)[C@H]2O)[C@H](O[C@@H]2O[C@@H](C)[C@@H](O)[C@@H](O)[C@@H]2O)[C@H]1O [Compound 26]
[1]; 0.5 mM
  % INHIBITION of L-selectin binding to sLeX: 0%
[1]; 1.0 mM
  % INHIBITION of L-selectin binding to sLeX: 30%
[1]; 2.0 mM
  % INHIBITION of L-selectin binding to sLeX: 30%
[1]; 4.0 mM
  % INHIBITION of L-selectin binding to sLeX: 30%
[5]; 0.5 mM
  % INHIBITION of P-selectin binding to sLeX: 0%
[5]; 1.0 mM
  % INHIBITION of P-selectin binding to sLeX: 20%
[5]; 2.0 mM
  % INHIBITION of P-selectin binding to sLeX: 40%
[5]; 4.0 mM
  % INHIBITION of P-selectin binding to sLeX: 45%
[5]; as compared to L-selectin
  inhibition of P selectin binding to 2,3 sLex glycolipid (in words): better inhibitor of P selectin (as compared to L-selectin)
[2]
  inhibition of binding of E selectin to 2,3 sLex glycolipid (in words): inhibit binding of E selectin to 2,3 sLex glycolipid
[2]; 0.5 mM
  % INHIBITION of E-selectin binding to sLeX: 0%
[2]; 1.0 mM
  % INHIBITION of E-selectin binding to sLeX: 30%
[2]; 2.0 mM
  % INHIBITION of E-selectin binding to sLeX: 50%
[2]; 4.0 mM
  % INHIBITION of E-selectin binding to sLeX: 70%

## CCCCCCCCO[C@@H]1O[C@H](CO)[C@@H](O[C@@H]2O[C@H](CO)[C@H](O)[C@H](OS(=O)(=O)O)[C@H]2O)[C@H](O)[C@H]1O [Compound 31, Octyl 4-O-(sodium β-D-galactopyranosyl 3-sulfate)-β-glucopyranoside]
[1]
  inhibition of binding of L selectin to 2,3 sLex glycolipid (in words): inactive
[1]; 0.5 mM
  % INHIBITION of L-selectin binding to sLeX: 0%
[1]; 1.0 mM
  % INHIBITION of L-selectin binding to sLeX: 0%
[1]; 2.0 mM
  % INHIBITION of L-selectin binding to sLeX: 0%
[1]; 4.0 mM
  % INHIBITION of L-selectin binding to sLeX: 0%
[2]
  inhibition of binding of E selectin to 2,3 sLex glycolipid (in words): inactive
[2]; 0.5 mM
  % INHIBITION of E-selectin binding to sLeX: 0%
[2]; 1.0 mM
  % INHIBITION of E-selectin binding to sLeX: 0%
[2]; 2.0 mM
  % INHIBITION of E-selectin binding to sLeX: 0%
[2]; 4.0 mM
  % INHIBITION of E-selectin binding to sLeX: 0%
[4]
  Alveolar-arterial blood oxygen gradient: decrease
[4]; following acid aspiration injury
  neutrophil-dependent injury to the lung endothelium and alveolar epithelium: effectively reduced neutrophil-dependent injury

## CC(=O)NC1C(O)CC(OC2C(O)C(CO)OC(OC3C(CO)OC(O)C(NC(C)=O)C3OC3OC(C)C(O)C(O)C3O)C2O)(C(=O)O)OC1C(O)C(O)CO (stereo not drawn) [sialyl Lewis X, NeuNAc α2-3-Gal-β1-4(Fucα1-3)-GlcNAc]
L-Selectin
  binding to L-Selectin: binds

## OC[C@H]1O[C@@H](O[C@H]2[C@H](O)[C@@H](O)C(O)O[C@@H]2CO)[C@H](O)[C@@H](O)[C@H]1O (stereo partly shown) [single valent lactose, lactose]
Mammalian hepatocytes
  IC50: 500 µM

## sulfatides
P-SELECTIN
  binding to P-Selectin: bind

Reference: patent publication US5728685A, “Methods of treating inflammation using cell adhesion inhibitors” (Glycomed Incorporated, priority 1995, dated 1998)
